Data published in ChEMBL document CHEMBL1144507, “Synthesis and antifungal activity of (Z)-5-arylidenerhodanines” (2007).
Values after ≈ are worked out from the molar mass of the structure shown.

Legend:
Candida tropicalis = test: Antifungal activity against Candida tropicalis C131-1997 after 48 hrs; type: functional
Nakaseomyces glabratus = test: Antifungal activity against Candida glabrata C115-2000 after 48 hrs; type: functional
Kluyveromyces marxianus = test: Antifungal activity against Candida kefyr C123-2000 after 48 hrs; type: functional
Candida albicans [1] = test: Antifungal activity against Candida albicans C125-2000 after 48 hrs; type: functional
Candida albicans [2] = test: Antifungal activity against Candida albicans C130-2000 after 48 hrs; type: functional
Torulaspora delbrueckii = test: Antifungal activity against Candida coliculosa C122-2000 after 48 hrs; type: functional
Candida parapsilosis = test: Antifungal activity against Candida parapsilosis C124-2000 after 48 hrs; type: functional; conditions: Lodderomyces parapsilosis
Cryptococcus neoformans [3] = test: Antifungal activity against […] ATCC 32264 after 48 hrs; type: functional; conditions: ATCC 32264, 48 h
Pichia kudriavzevii = test: Antifungal activity against Candida krusei C117-2000 after 48 hrs; type: functional
Candida albicans [4] = test: Antifungal activity against Candida albicans C126-2000 after 48 hrs; type: functional
Clavispora lusitaniae = test: Antifungal activity against Candida lusitaniae C131-2000 after 48 hrs; type: functional
Candida albicans [5] = test: Antifungal activity against Candida albicans C128-2000 after 48 hrs; type: functional
Candida albicans [6] = test: Antifungal activity against Candida albicans C127-2000 after 48 hrs; type: functional
Aspergillus niger = test: Antifungal activity against Aspergillus niger ATCC 9029 after 48 hrs; type: functional; conditions: ATCC 9029, 48 h
Aspergillus flavus = test: Antifungal activity against Aspergillus flavus ATCC 9170 after 48 hrs; type: functional; conditions: ATCC 9170, 48 h
Nannizzia gypsea = test: Antifungal activity against Microsporum gypseum C115 after 48 hrs; type: functional
Cryptococcus neoformans [7] = test: Antifungal activity against Cryptococcus neoformans ATCC 32264 after 48 hrs; type: functional; conditions: ATCC 32264, 48 h
Trichophyton benhamiae = test: Antifungal activity against Trichophyton mentagrophytes ATCC 9972 after 48 hrs; type: functional, Arthroderma benhamiae; conditions: ATCC 9972, 48 h
Aspergillus fumigatus = test: Antifungal activity against Aspergillus fumigatus ATCC 26934 after 48 hrs; type: functional; conditions: ATCC 26934, 48 h
Trichophyton rubrum = test: Antifungal activity against Trichophyton rubrum C113 after 48 hrs; type: functional
Candida albicans [8] = test: Antifungal activity against Candida albicans ATCC 10231 after 48 hrs; type: functional; conditions: ATCC 10231, 48 h
Saccharomyces cerevisiae = test: Antifungal activity against Saccharomyces cerevisiae ATCC 9763 after 48 hrs; type: functional; conditions: ATCC 9763, 48 h
Cryptococcus neoformans [9] = test: Antifungal activity against […] IM 00319 after 48 hrs; type: functional
Cryptococcus neoformans [10] = test: Antifungal activity against […] IM 052470 after 48 hrs; type: functional
Cryptococcus neoformans [11] = test: Antifungal activity against […] IM 972724 after 48 hrs; type: functional
Cryptococcus neoformans [12] = test: Antifungal activity against […] IM 961951 after 48 hrs; type: functional
Cryptococcus neoformans [13] = test: Antifungal activity against Candida neoformans IM 983040 after 48 hrs; type: functional
Cryptococcus neoformans [14] = test: Antifungal activity against […] IM 042074 after 48 hrs; type: functional
Cryptococcus neoformans [15] = test: Antifungal activity against […] IM 983036 after 48 hrs; type: functional
Cryptococcus neoformans [16] = test: Antifungal activity against […] IM 972751 after 48 hrs; type: functional
Cryptococcus neoformans [17] = test: Antifungal activity against […] IM 031631 after 48 hrs; type: functional
Cryptococcus neoformans [18] = test: Antifungal activity against […] IM 031706 after 48 hrs; type: functional
[19] = Cryptococcus neoformans, 48 h, read-out: MFC

## CC(=O)N1CCN(c2ccc(OCC3COC(Cn4ccnc4)(c4ccc(Cl)cc4Cl)O3)cc2)CC1 (centres undefined) [KETOCONAZOLE]
Candida tropicalis
  MFC: 0.125 µg/mL (≈ 0.235 µM)
Nakaseomyces glabratus
  MFC: 1.56 µg/mL (≈ 2.94 µM)
Kluyveromyces marxianus
  MFC: 0.78 µg/mL (≈ 1.47 µM)
Candida albicans [1]
  MFC: 6.25 µg/mL (≈ 11.8 µM)
Candida albicans [2]
  MFC: 6.25 µg/mL (≈ 11.8 µM)
Torulaspora delbrueckii
  MFC: 0.78 µg/mL (≈ 1.47 µM)
Candida parapsilosis
  MFC: 0.78 µg/mL (≈ 1.47 µM)
Cryptococcus neoformans [3]
  MFC: 0.25 µg/mL (≈ 0.47 µM)
Pichia kudriavzevii
  MFC: 50 µg/mL (≈ 94.1 µM)
Candida albicans [4]
  MFC: 1.56 µg/mL (≈ 2.94 µM)
Clavispora lusitaniae
  MFC: 25 µg/mL (≈ 47 µM)
Candida albicans [5]
  MFC: 6.25 µg/mL (≈ 11.8 µM)
Candida albicans [6]
  MFC: 6.25 µg/mL (≈ 11.8 µM)

## O=C1NC(=S)S/C1=C\c1ccc(Br)cc1
Aspergillus niger
  MIC: > 250 µg/mL
Aspergillus flavus
  MIC: > 250 µg/mL
Nannizzia gypsea
  MIC: > 250 µg/mL
Cryptococcus neoformans [7]
  MIC: 62.5 µg/mL (≈ 208 µM)
Trichophyton benhamiae
  MIC: > 250 µg/mL
Aspergillus fumigatus
  MIC: > 250 µg/mL
Trichophyton rubrum
  MIC: > 250 µg/mL
Candida albicans [8]
  MIC: > 250 µg/mL
Saccharomyces cerevisiae
  MIC: 250 µg/mL (≈ 833 µM)

## O=C1NC(=S)S/C1=C\c1ccc(Cl)cc1
Aspergillus niger
  MIC: 250 µg/mL (≈ 978 µM)
Aspergillus flavus
  MIC: 125 µg/mL (≈ 489 µM)
Nannizzia gypsea
  MIC: 62.5 µg/mL (≈ 244 µM)
Cryptococcus neoformans [7]
  MIC: 15.6 µg/mL (≈ 61 µM)
Trichophyton benhamiae
  MIC: 62.5 µg/mL (≈ 244 µM)
Aspergillus fumigatus
  MIC: 125 µg/mL (≈ 489 µM)
Trichophyton rubrum
  MIC: 62.5 µg/mL (≈ 244 µM)
Candida albicans [8]
  MIC: 250 µg/mL (≈ 978 µM)
Saccharomyces cerevisiae
  MIC: 250 µg/mL (≈ 978 µM)

## CCC(C)n1ncn(-c2ccc(N3CCN(c4ccc(OCC5COC(Cn6cncn6)(c6ccc(Cl)cc6Cl)O5)cc4)CC3)cc2)c1=O (centres undefined) [ITRACONAZOLE]
Cryptococcus neoformans [9]
  MFC: < 0.015 µg/mL
Cryptococcus neoformans [10]
  MFC: < 0.015 µg/mL
Cryptococcus neoformans [11]
  MFC: 0.25 µg/mL (≈ 0.354 µM)
Cryptococcus neoformans [12]
  MFC: < 0.015 µg/mL
Cryptococcus neoformans [13]
  MFC: < 0.015 µg/mL
Cryptococcus neoformans [14]
  MFC: < 0.015 µg/mL
Cryptococcus neoformans [3]
  MFC: 0.15 µg/mL (≈ 0.213 µM)
Cryptococcus neoformans [15]
  MFC: < 0.015 µg/mL
Cryptococcus neoformans [16]
  MFC: < 0.015 µg/mL
Cryptococcus neoformans [17]; [19]
  MFC: 0.25 µg/mL (≈ 0.354 µM)
Cryptococcus neoformans [18]
  MFC: 0.5 µg/mL (≈ 0.709 µM)

## O=C1NC(=S)S/C1=C\c1ccc2c(c1)OCO2
Aspergillus niger
  MIC: > 250 µg/mL
Aspergillus flavus
  MIC: > 250 µg/mL
Nannizzia gypsea
  MIC: > 250 µg/mL
Cryptococcus neoformans [7]
  MIC: > 250 µg/mL
Trichophyton benhamiae
  MIC: > 250 µg/mL
Aspergillus fumigatus
  MIC: > 250 µg/mL
Trichophyton rubrum
  MIC: > 250 µg/mL
Candida albicans [8]
  MIC: > 250 µg/mL
Saccharomyces cerevisiae
  MIC: > 250 µg/mL

## O=C1NC(=S)S/C1=C\c1ccccc1F
Aspergillus niger
  MIC: > 250 µg/mL
Aspergillus flavus
  MIC: > 250 µg/mL
Nannizzia gypsea
  MIC: 3.9 µg/mL (≈ 16.3 µM)
Cryptococcus neoformans [7]
  MIC: 15.6 µg/mL (≈ 65.2 µM)
Trichophyton benhamiae
  MIC: 3.9 µg/mL (≈ 16.3 µM)
Aspergillus fumigatus
  MIC: > 250 µg/mL
Trichophyton rubrum
  MIC: 3.9 µg/mL (≈ 16.3 µM)
Candida albicans [8]
  MIC: 250 µg/mL (≈ 1040 µM)
Saccharomyces cerevisiae
  MIC: 250 µg/mL (≈ 1040 µM)

## C[C@@H]1[C@H](O)[C@@H](C)/C=C/C=C/C=C/C=C/C=C/C=C/C=C/[C@H](O[C@@H]2O[C@H](C)[C@@H](O)[C@H](N)[C@@H]2O)C[C@@H]2O[C@](O)(C[C@@H](O)C[C@@H](O)[C@H](O)CC[C@@H](O)C[C@@H](O)CC(=O)O[C@H]1C)C[C@H](O)[C@H]2C(=O)O [AMPHOTERICIN B]
Candida tropicalis
  MFC: 0.5 µg/mL (≈ 0.541 µM)
Cryptococcus neoformans [9]
  MFC: 0.25 µg/mL (≈ 0.271 µM)
Cryptococcus neoformans [10]
  MFC: 0.5 µg/mL (≈ 0.541 µM)
Cryptococcus neoformans [11]
  MFC: 0.06 µg/mL (≈ 0.0649 µM)
Cryptococcus neoformans [12]
  MFC: 0.06 µg/mL (≈ 0.0649 µM)
Nakaseomyces glabratus
  MFC: 0.39 µg/mL (≈ 0.422 µM)
Kluyveromyces marxianus
  MFC: 0.78 µg/mL (≈ 0.844 µM)
Cryptococcus neoformans [13]
  MFC: 0.13 µg/mL (≈ 0.141 µM)
Cryptococcus neoformans [14]
  MFC: 0.25 µg/mL (≈ 0.271 µM)
Candida albicans [1]
  MFC: 0.78 µg/mL (≈ 0.844 µM)
Candida albicans [2]
  MFC: 0.78 µg/mL (≈ 0.844 µM)
Torulaspora delbrueckii
  MFC: 0.36 µg/mL (≈ 0.39 µM)
Candida parapsilosis
  MFC: 0.78 µg/mL (≈ 0.844 µM)
Cryptococcus neoformans [3]
  MFC: 0.25 µg/mL (≈ 0.271 µM)
Pichia kudriavzevii
  MFC: 0.39 µg/mL (≈ 0.422 µM)
Candida albicans [4]
  MFC: 1.56 µg/mL (≈ 1.69 µM)
Cryptococcus neoformans [15]
  MFC: 0.13 µg/mL (≈ 0.141 µM)
Clavispora lusitaniae
  MFC: 0.39 µg/mL (≈ 0.422 µM)
Cryptococcus neoformans [16]
  MFC: 0.25 µg/mL (≈ 0.271 µM)
Candida albicans [5]
  MFC: 1.56 µg/mL (≈ 1.69 µM)
Candida albicans [6]
  MFC: 0.78 µg/mL (≈ 0.844 µM)
Cryptococcus neoformans [17]; [19]
  MFC: 0.13 µg/mL (≈ 0.141 µM)
Cryptococcus neoformans [18]
  MFC: 0.25 µg/mL (≈ 0.271 µM)

## C[C@@H](c1ncncc1F)[C@](O)(Cn1cncn1)c1ccc(F)cc1F [VORICONAZOLE]
Cryptococcus neoformans [9]
  MFC: < 0.015 µg/mL
Cryptococcus neoformans [10]
  MFC: 0.03 µg/mL (≈ 0.0859 µM)
Cryptococcus neoformans [11]
  MFC: < 0.015 µg/mL
Cryptococcus neoformans [12]
  MFC: 0.015 µg/mL (≈ 0.0429 µM)
Cryptococcus neoformans [13]
  MFC: < 0.015 µg/mL
Cryptococcus neoformans [14]
  MFC: < 0.015 µg/mL
Cryptococcus neoformans [15]
  MFC: < 0.015 µg/mL
Cryptococcus neoformans [16]
  MFC: 0.03 µg/mL (≈ 0.0859 µM)
Cryptococcus neoformans [17]
  MFC: 0.25
Cryptococcus neoformans [18]
  MFC: 0.5 µg/mL (≈ 1.43 µM)

## COc1ccc(/C=C2\SC(=S)NC2=O)cc1
Aspergillus niger
  MIC: > 250 µg/mL
Aspergillus flavus
  MIC: > 250 µg/mL
Nannizzia gypsea
  MIC: > 250 µg/mL
Cryptococcus neoformans [7]
  MIC: > 250 µg/mL
Trichophyton benhamiae
  MIC: > 250 µg/mL
Aspergillus fumigatus
  MIC: > 250 µg/mL
Trichophyton rubrum
  MIC: > 250 µg/mL
Candida albicans [8]
  MIC: > 250 µg/mL
Saccharomyces cerevisiae
  MIC: > 250 µg/mL

## COc1ccc(/C=C2\SC(=S)NC2=O)c(OC)c1OC
Aspergillus niger
  MIC: > 250 µg/mL
Aspergillus flavus
  MIC: > 250 µg/mL
Nannizzia gypsea
  MIC: > 250 µg/mL
Cryptococcus neoformans [7]
  MIC: > 250 µg/mL
Trichophyton benhamiae
  MIC: > 250 µg/mL
Aspergillus fumigatus
  MIC: > 250 µg/mL
Trichophyton rubrum
  MIC: > 250 µg/mL
Candida albicans [8]
  MIC: > 250 µg/mL
Saccharomyces cerevisiae
  MIC: > 250 µg/mL

## O=C1NC(=S)S/C1=C\[n+]1ccccc1
Aspergillus niger
  MIC: > 250 µg/mL
Aspergillus flavus
  MIC: > 250 µg/mL
Nannizzia gypsea
  MIC: > 250 µg/mL
Cryptococcus neoformans [7]
  MIC: > 250 µg/mL
Trichophyton benhamiae
  MIC: > 250 µg/mL
Aspergillus fumigatus
  MIC: > 250 µg/mL
Trichophyton rubrum
  MIC: > 250 µg/mL
Candida albicans [8]
  MIC: > 250 µg/mL
Saccharomyces cerevisiae
  MIC: > 250 µg/mL

## Nc1nc(=O)[nH]cc1F [FLUCYTOSINE]
Cryptococcus neoformans [10]
  MFC: 7.8 µg/mL (≈ 60.4 µM)
Cryptococcus neoformans [11]
  MFC: 3.9 µg/mL (≈ 30.2 µM)
Cryptococcus neoformans [12]
  MFC: 3.9 µg/mL (≈ 30.2 µM)
Cryptococcus neoformans [13]
  MFC: 7.8 µg/mL (≈ 60.4 µM)
Cryptococcus neoformans [14]
  MFC: 3.9 µg/mL (≈ 30.2 µM)
Cryptococcus neoformans [15]
  MFC: 7.8 µg/mL (≈ 60.4 µM)
Cryptococcus neoformans [16]
  MFC: 15.6 µg/mL (≈ 121 µM)
Cryptococcus neoformans [17]; [19]
  MFC: 7.8 µg/mL (≈ 60.4 µM)
Cryptococcus neoformans [18]
  MFC: 7.8 µg/mL (≈ 60.4 µM)
